Read-outs that look alike come from different tables or passages of the source.
Experiments:
HPV16-positive cells [1] = experiment: HLA immunoprecipitation and LC-MS of peptides presented by HPV16-positive cells; format: cell-based, human; design: key: +: presentation: HLA-presentation of the peptide by HPV16-positive cells shown by MS; conditions: HLA-presentation by HPV16-positive cells shown by MS
Experimental: HLA immunoprecipitation (IP) was performed according to previously published protocols (Bassani-Sternberg et al., 2016; Chong et al., 2018). Briefly, HPV16+ cells were lysed with a lysis buffer containing 1% N-octyl-β-D glucopyranoside, 0.25% Na-Deoxycholate, protease inhibitor cocktail (Sigma-Aldrich, Mannheim, Germany)/PMSF (Carl Roth, Karlsruhe, Germany) in PBS. After centrifugation at 40,000×g, 4° C., for 30 min. HLA-peptide complexes were immuno-precipitated by incubation with mouse anti-human HLA-A,B,C monoclonal antibody (clone W6/32, Biolegend, San Diego, CA, USA) or in some cases HLA-type-specific antibody (HLA-A2: clone BB7.2, HLA-A3: clone GAP A3, HLA-A11/A24: clone Hb 164, HLA-B7: clone BB7.1) crosslinked to protein G Sepharose beads (Cytiva, Marlborough, MA, USA) or Protein A—Sepharose™ 4B (Invitrogen Corporation, Camarillo, CA, USA) for 4 h at 4° C. under constant mixing on a rotating wheel. Supernatant was discarded after centrifugation at 3200×g, for 3 min at RT. Pelleted HLA-peptide complexes bound to antibody-beads were washed 3 times in each of the following steps: first with ice-cold 20 mM Tris-HCl pH 8 containing 150 mM NaCl followed by the same buffer but with additional […] and finally with 20 mM Tris-HCl alone. Peptides were eluted from antibody-beads bound to HLA by 0.3% TFA. Resulting peptides were desalted by reverse-phase purification using a SepPak 96-well plate (Waters, Milford, MA, USA). Peptides eluted in 28% ACN in 0.1% TFA were dried by vacuum centrifugation (Concentrator plus, Eppendorf, Hamburg, Germany).
The set of predicted target peptides were acquired as stable isotope labelled (SIL) peptides from commercial suppliers (crude synthesis product; isotope purity >99 atom % ^13C and ^15N). First, analysis by direct infusion was performed in order to optimize normalized collision energy (NCE) for each single peptide in a mixture. NCE values were ranging from 4% to 42% and each value, in 2% steps, was measured 4 times for four charge states (1+ to 4+) of each peptide. Orbitrap Exploris 480 (Thermo Fisher Scientific) in targeted MS2 scan (PRM) was operated using 30K resolution at 200 m/z, standard automated gain control (AGC) target, 350 ms maximum injection time (IT), 1 micro scan in centroid data acquisition mode. For all measurements, isolation window was 0.4, 0.7, 1 or 1.5 m/z, depending on the mass of the precursor, as recommended by the manufacturer. Ion chromatograms of all expected transitions were extracted with 12 ppm mass tolerance from the centroided spectra and deconvoluted using purpose-made R scripts. The best NCE value was selected so that the intensity of any 5th most intense transitions is maximized, thereby maximizing the chance of detecting at least 5 transitions. The retention time (RT) for each peptide was determined by LC-MS in DDA mode with an inclusion list of target peptides in all four charge-states. The MS resolution was set to 120K, 3e6 AGC target, 50 ms maximum IT and the LC operated as described below.
For LC-MS, samples were dissolved in 2.5 to 5 μl of 5% ACN in 0.1% TFA with 50 fmol of Peptide Retention Time Calibration (PRTC) Mixture (88321, Pierce™) spiked in, followed by 3 min bath sonication. All samples were analysed by liquid chromatography (U-3000, Thermo Fisher Scientific) coupled to Orbitrap Exploris 480 (Thermo Fisher Scientific). […]

[2] = test system: short-term antigen-specific T cell lines generated from PBMCs; design: key: +: ELISPOT: Immungenicity of the peptide shown by IFN-gamma ELISPOT analysis; conditions: immunogenicity by IFN-gamma ELISPOT, * data from published resources, cited from earlier work
HPV16-positive cells [3] = test system: HPV16-positive cells; design: key: +: presentation: HLA-presentation of the peptide by HPV16-positive cells shown by MS; conditions: HLA-presentation by HPV16-positive cells shown by MS; * data from published resources; cited from earlier work
[4] = test system: short-term antigen-specific T cell lines generated from PBMCs; experiment: Interferon-γ ELISpot assay on short-term peptide-specific T cell lines from PBMCs; format: cell-based, human; design: key: +: ELISPOT: Immungenicity of the peptide shown by IFN-gamma ELISPOT analysis; conditions: immunogenicity by IFN-gamma ELISPOT

Substance | presentation (HPV16-positive cells [1]) | ELISpot [2] | presentation (HPV16-positive cells [3]) | ELISpot [4] | ELISpot ([4]; B15) | ELISpot ([2]; B07)
1 (ISEYRHYCY; Human papillomavirus 16) [compound 1] | + | +* |  |  |  | 
2 (YMLDLQPET; Human papillomavirus 16) [compound 2] |  | +* | +* |  |  | 
3 (TTLEQQYNK; Human papillomavirus 16) [compound 3] | + |  |  | + |  | 
4 (RAHYNIVTF; Human papillomavirus 16) [compound 4] | + |  |  |  | +(B15) | +*(B07)
5 (RPRKLPQL; Human papillomavirus 16) [compound 5] | + |  |  | + |  | 
6 (LQPETTDLY; Human papillomavirus 16) [compound 6] | + | +* |  |  |  | 

From patent publication US20260240974A1, “A T[…] VACCINE BASED ON VALIDATED TARGET EPITOPES” (Deutsches Krebsforschungszentrum Stiftung des öffentlichen …, priority 2023, published 2026)
